Here are results for 24 molecules from US20260166039A1 (SCHRÖDINGER, INC., priority 2022, published 2026).

Assay [1] deals with phosphorylation of Cdc2 Y15 (Wee1 substrate) in A427 cells. Nature of the assay: Phosphorylated Cdc2 MSD Electrochemiluminescence Assay. The note with it: Homo sapiens. The assay is classed as cell-based. Summed up:
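A427 cells (RPMI 1640, 10% FBS) treated 20 h after plating with 3-fold serial compound dilutions, in duplicate, 37 °C, 5% CO2; total incubation 6 h. Lysate Cdc2 pY15 read by MSD electrochemiluminescence sandwich immunoassay; % remaining signal normalised to DMSO (high) and reference Wee1 inhibitor (low) controls.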

Assay [2] addresses T1, Wee1 kinase domain (Homo sapiens, UniProt P30291).
T1 construct: Wee1 kinase domain was purchased from Carna (catalog #05-177); purchased Carna 05-177
The assay is described as follows: Wee1 Kinase Biochemical Assay (ADP-Glo). Particulars: 15 uM ATP. Put shortly: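 Carna Wee1 kinase domain at 1 nM, with 15 uM ATP and 2 ng/mL poly(Lys,Tyr 4:1) substrate in 40 mM Tris-HCl, 20 mM MgCl2, 0.1 mg/mL BSA, 2 mM DTT, run 4 h at 25° C. ADP formation read by ADP-Glo luminescence. Percent inhibition normalised to DMSO and saturating-inhibitor controls.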
On the technique in general: ADP-Glo turns the ADP formed in a reaction into a luminescent signal.

Where [3] appears, read: A-427, class symbols, read-out: A427 pCDC2 MSD IC50.
Setting [4] is: class symbols, 1 nM Wee1 enzyme, 4 hours at 25° C.

Where two headings read alike, the source gives them in different places. Where only a bound is given, the exact number is not on record here.

T1 sequence (P30291 299-569 limits assumed): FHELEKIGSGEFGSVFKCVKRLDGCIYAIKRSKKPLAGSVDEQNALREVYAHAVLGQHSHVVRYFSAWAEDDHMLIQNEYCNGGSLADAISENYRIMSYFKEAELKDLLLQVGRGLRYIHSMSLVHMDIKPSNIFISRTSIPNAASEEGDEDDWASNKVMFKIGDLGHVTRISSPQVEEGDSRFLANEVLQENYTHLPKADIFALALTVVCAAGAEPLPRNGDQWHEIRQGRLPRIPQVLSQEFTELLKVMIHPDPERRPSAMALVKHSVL

In general, IC50 refers to the midpoint of a concentration-inhibition curve. In the case of `CN1CC[C@H](Oc2ccc(Nc3ncc4c(n3)N(c3cccc(N5CCCC5=O)n3)[C@@H]3CC(C)(C)OC[C@]43C)cc2)C1` [Example 618, 1-(6-((4bR,8aR)-4b,7,7-trimethyl-2-((4-(((S)-1-methylpyrrolidin-3-yl)oxy)phenyl)amino)-4b,7,8,8a-tetrahydropyrano[3′,4′:4,5]pyrrolo[2,3-d]pyrimidin-9(5H)-yl)pyridin-2-yl)pyrrolidin-2-one], the IC50 in assay [1] (setting [3]) is under 0.1 µM; in assay [2] (setting [4]) it was under 0.01 µM.
Consider `CN1C[C@@H]2C[C@H]1CN2c1ccc(Nc2ncc3c(n2)N(c2cccc(N=S(C)(C)=O)n2)[C@@H]2CC(C)(C)OC[C@]32C)cc1F` (single isomer, unassigned) [Example 180], for which the IC50 in assay [1] (A-427, pCDC2 MSD) was 0.1 to 1 µM; in assay [2] (Wee1 kinase domain, ADP-Glo), under 0.01 µM.
Regarding `CN1C[C@@H]2C[C@H]1CN2c1ccc(Nc2ncc3c(n2)N(c2cccc(C(C)(C)O)n2)[C@@H]2CC(C)(C)OC[C@]32C)cc1F` (single isomer, unassigned) [Example 431], the 50% inhibitory concentration (IC50) in assay [1] (setting [3]) is 0.1 to 1 µM; in assay [2] (setting [4]), under 0.01 µM.
Turning to `CC1(C)C[C@H]2N(c3cccc(N=S(C)(C)=O)n3)c3nc(Nc4ccc(C5CNC5)nc4)ncc3[C@@]2(C)CO1` (single isomer, unassigned) [Example 190], the IC50 is 0.1 to 1 µM in assay [1] (A-427, pCDC2 MSD) and under 0.01 µM in assay [2] (Wee1 kinase domain, ADP-Glo).
Regarding `COc1cccc(N2c3nc(Nc4ccc(N5CCN(C)CC5)cc4)ncc3[C@@]3(C)COC(C)(C)C[C@@H]23)n1` (single isomer, unassigned) [Example 758], the IC50 was 0.1 to 1 µM in assay [1] (setting [3]) and under 0.01 µM in assay [2] (setting [4]).
For `CC1(C)C[C@@H]2N(c3cccc(C(C)(C)O)n3)c3nc(Nc4ccc(O[C@@H]5CCNC5)cc4)ncc3[C@]2(C)CO1` (single isomer, unassigned) [Example 417], in that order: under 0.1 µM and under 0.01 µM.
On to `CC1(C)C[C@@H]2N(c3cccc(N=S(C)(C)=O)n3)c3nc(Nc4ccc([C@]5(C)CCNC5)cc4)ncc3[C@]2(C)CO1` (single isomer, unassigned) [Example 173], for which the IC50 in assay [1] (A-427, pCDC2 MSD) was under 0.1 µM; in assay [2] (Wee1 kinase domain, ADP-Glo), under 0.01 µM.
Taken in the same sequence, the figures for `CNCc1cccc(N2c3nc(Nc4ccccc4)ncc3[C@@]3(C)COC(C)(C)C[C@@H]23)n1` (single isomer, unassigned) [Example 45] were 0.1 to 1 µM and under 0.01 µM.
As to `CCn1ccc(N2c3nc(Nc4ccc(N5CCN(C)CC5)cc4)ncc3[C@@]3(C)COC(C)(C)C[C@@H]23)n1` (single isomer, unassigned) [Example 744], the IC50 in assay [1] (setting [3]) was 1 to 10 µM; in assay [2] (setting [4]) it was under 0.01 µM.
For the molecule `CNC1(c2cccc(N3c4nc(Nc5ccc(C6CCN(C)CC6)c(C)c5)ncc4[C@]4(C)COC(C)(C)C[C@H]34)n2)CC1` (single isomer, unassigned) [Example 574], the IC50 in assay [1] (setting [3]) lay within 0.1 to 1 µM; in assay [2] (setting [4]) it was 0.01 to 0.1 µM.
For `CN1C[C@@H]2C[C@H]1CN2c1ccc(Nc2ncc3c(n2)N(c2cccc(N4CCCC4=O)n2)[C@@H]2CC(C)(C)OC[C@]32C)cc1F` [Example 640, 1-(6-((4bR,8aR)-2-((3-fluoro-4-((1S,4S)-5-methyl-2,5-diazabicyclo[2.2.1]heptan-2-yl)phenyl)amino)-4b,7,7-trimethyl-4b,7,8,8a-tetrahydropyrano[3′,4′:4,5]pyrrolo[2,3-d]pyrimidin-9(5H)-yl)pyridin-2-yl)pyrrolidin-2-one], in that order: 0.1 to 1 µM and under 0.01 µM.
Regarding `C[C@H]1COC(=O)N1c1cccc(N2c3nc(Nc4ccc(N5CC6(CN(C)C6)C5)cc4)ncc3[C@@]3(C)COCC[C@@H]23)n1` (single isomer, unassigned) [Example 784], the IC50 in assay [1] (setting [3]) was 0.1 to 1 µM; in assay [2] (setting [4]) it was under 0.01 µM.
Taken in the same sequence, the figures for `CN1C[C@H]2C[C@@H]1CN2c1ccc(Nc2ncc3c(n2)N(c2cccc(P(C)(C)=O)n2)[C@@H]2CC(C)(C)OC[C@]32C)cc1` [Example 778, dimethyl(6-((4bR,8aR)-4b,7,7-trimethyl-2-((4-((1R,4R)-5-methyl-2,5-diazabicyclo[2.2.1]heptan-2-yl)phenyl)amino)-4b,7,8,8a-tetrahydropyrano[3′,4′:4,5]pyrrolo[2,3-d]pyrimidin-9(5H)-yl)pyridin-2-yl)phosphine oxide] were 0.1 to 1 µM and under 0.01 µM.
`CC1(C)C[C@H]2N(c3cccc(N=S(C)(C)=O)n3)c3nc(Nc4ccc(C5CNC5)cc4)ncc3[C@@]2(C)CO1` (single isomer, unassigned) [Example 163]: the IC50 in assay [1] (A-427, pCDC2 MSD) is under 0.1 µM; in assay [2] (Wee1 kinase domain, ADP-Glo), under 0.01 µM.
As to `CNCc1cccc(N2c3nc(Nc4ccc(N5CCOC[C@@H]5C)cc4)ncc3[C@@]3(C)COC(C)(C)C[C@@H]23)n1` (single isomer, unassigned) [Example 476], the IC50 in assay [1] (setting [3]) was 0.1 to 1 µM; in assay [2] (setting [4]) it was under 0.01 µM.
In the case of `CN1CC[C@@H](c2ccc(Nc3ncc4c(n3)N(c3cccc(N=S(C)(C)=O)n3)[C@@H]3CC(C)(C)OC[C@]43C)cc2)C1` (single isomer, unassigned) [Example 129], the IC50 is under 0.1 µM in assay [1] (A-427, pCDC2 MSD) and under 0.01 µM in assay [2] (Wee1 kinase domain, ADP-Glo).
For `CN1CCC(c2ccc(Nc3ncc4c(n3)N(c3cccc(N=S(C)(C)=O)n3)[C@@H]3CC(C)(C)OC[C@]43C)cn2)CC1` (single isomer, unassigned) [Example 140], in that order: under 0.1 µM and under 0.01 µM.
For `CN1CC(c2ccc(Nc3ncc4c(n3)N(c3cccc(N=S(C)(C)=O)n3)[C@@H]3CC(C)(C)OC[C@]43C)cc2)C1` (single isomer, unassigned) [Example 165], in that order: under 0.1 µM and under 0.01 µM.
Taken in the same sequence, the figures for `CN1Cc2cc(Nc3ncc4c(n3)N(c3cccc(N=S(C)(C)=O)n3)[C@@H]3CC(C)(C)OC[C@]43C)ccc2C2(CC2)C1` (single isomer, unassigned) [Example 107] were under 0.1 µM and under 0.01 µM.
Consider `CNCc1cccc(N2c3nc(Nc4ccc(-c5cnn(C)c5)c(C)c4)ncc3[C@@]3(C)COC(C)(C)C[C@@H]23)n1` (single isomer, unassigned) [Example 464], for which the half-maximal inhibitory concentration (IC50) was 0.1 to 1 µM in assay [1] (setting [3]) and under 0.01 µM in assay [2] (setting [4]).
Take `CN1C[C@H]2C[C@@H]1CN2c1ccc(Nc2ncc3c(n2)N(c2cccc(C4(O)CC4)n2)C2CC(C)(C)OCC32C)cc1` (stereo in doubt) [Example 646, 1-(6-((4bR,8aR)-4b,7,7-trimethyl-2-((4-((1R,4R)-5-methyl-2,5-diazabicyclo[2.2.1]heptan-2-yl)phenyl)amino)-4b,7,8,8a-tetrahydropyrano[3′,4′:4,5]pyrrolo[2,3-d]pyrimidin-9(5H)-yl)pyridin-2-yl)cyclopropan-1-ol]: the values for the IC50 in assay [1] (setting [3]) and in assay [2] (setting [4]) were 0.1 to 1 µM and under 0.01 µM, respectively.
`CN1CCC(c2ccc(Nc3ncc4c(n3)N(c3cccc(N=S(C)(C)=O)n3)[C@@H]3CC(C)(C)OC[C@]43C)cc2F)CC1` (single isomer, unassigned) [Example 177]: the IC50 is 0.1 to 1 µM in assay [1] (A-427, pCDC2 MSD) and under 0.01 µM in assay [2] (Wee1 kinase domain, ADP-Glo).
For `CC1(C)C[C@H]2N(c3cccc(N=S(C)(C)=O)n3)c3nc(Nc4ccn5ccnc5c4)ncc3[C@@]2(C)CO1` (single isomer, unassigned) [Example 379], in that order: 0.1 to 1 µM and under 0.01 µM.
As for `Cc1cc(Nc2ncc3c(n2)N(c2cccc(N4CCOC4=O)n2)[C@@H]2CC(C)(C)OC[C@]32C)ccc1C1CCN(C)CC1` (single isomer, unassigned) [Example 597], the IC50 was 0.1 to 1 µM in assay [1] (setting [3]) and under 0.01 µM in assay [2] (setting [4]).
